{"source": "patent US9688653B2", "about": "“Ethoxyphenyl thienyl compounds and methods for the treatment of bacterial infections” (Duke University, priority 2013, dated 2017)", "key": {"panel of 68 receptors [1]": {"molecular_target": "panel of 68 receptors (Homo sapiens, UniProt P02708)", "conditions": "Nicotinic Acetylcholine α1, Bungarotoxin, hum, 10 μM"}, "panel of 68 receptors [2]": {"molecular_target": "panel of 68 receptors (Homo sapiens, UniProt P03372)", "conditions": "Estrogen ERα, hum, 10 μM"}, "panel of 68 receptors [3]": {"molecular_target": "panel of 68 receptors (Homo sapiens, UniProt P08172)", "sequence (P08172 whole entry)": "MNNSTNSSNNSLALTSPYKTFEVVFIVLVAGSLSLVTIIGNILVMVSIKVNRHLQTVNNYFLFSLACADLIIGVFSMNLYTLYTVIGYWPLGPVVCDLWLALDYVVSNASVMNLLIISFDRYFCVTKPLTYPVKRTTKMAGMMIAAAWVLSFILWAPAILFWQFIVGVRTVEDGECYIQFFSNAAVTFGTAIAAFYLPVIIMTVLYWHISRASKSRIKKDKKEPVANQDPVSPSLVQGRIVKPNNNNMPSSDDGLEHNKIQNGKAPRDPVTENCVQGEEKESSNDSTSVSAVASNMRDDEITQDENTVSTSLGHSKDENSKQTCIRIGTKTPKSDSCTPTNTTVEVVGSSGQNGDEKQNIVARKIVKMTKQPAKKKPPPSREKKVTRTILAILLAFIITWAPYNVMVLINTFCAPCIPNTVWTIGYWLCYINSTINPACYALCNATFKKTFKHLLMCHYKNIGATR", "conditions": "Muscarinic M2, hum, 10 μM"}, "panel of 68 receptors [4]": {"molecular_target": "panel of 68 receptors (Homo sapiens, UniProt P08588)", "conditions": "Adrenergic β1, hum, 10 μM"}, "panel of 68 receptors [5]": {"molecular_target": "panel of 68 receptors (Homo sapiens, UniProt P08908)", "conditions": "Serotonin (5-Hydroxytryptamine) 5-HT1A, hum, 10 μM"}, "panel of 68 receptors [6]": {"molecular_target": "panel of 68 receptors (Homo sapiens, UniProt P08913)", "sequence (P08913 whole entry)": "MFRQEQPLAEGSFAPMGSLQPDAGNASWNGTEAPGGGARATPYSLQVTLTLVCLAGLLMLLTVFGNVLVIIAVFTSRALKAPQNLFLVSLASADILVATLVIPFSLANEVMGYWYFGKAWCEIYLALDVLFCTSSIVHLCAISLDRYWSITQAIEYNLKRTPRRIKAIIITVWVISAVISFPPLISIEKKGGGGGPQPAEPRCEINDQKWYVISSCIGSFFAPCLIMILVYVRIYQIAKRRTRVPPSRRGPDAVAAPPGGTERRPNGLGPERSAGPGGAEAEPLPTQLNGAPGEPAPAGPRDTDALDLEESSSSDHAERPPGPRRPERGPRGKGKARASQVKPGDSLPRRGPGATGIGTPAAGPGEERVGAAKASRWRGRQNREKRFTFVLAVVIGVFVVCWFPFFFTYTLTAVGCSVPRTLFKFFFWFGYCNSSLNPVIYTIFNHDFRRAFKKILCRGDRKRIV", "conditions": "Adrenergic α2A, hum, 10 μM"}, "panel of 68 receptors [7]": {"molecular_target": "panel of 68 receptors (Homo sapiens, UniProt P0DMS8)", "conditions": "Adenosine A3, hum, 10 μM"}, "panel of 68 receptors [8]": {"molecular_target": "panel of 68 receptors (Homo sapiens, UniProt P11229)", "conditions": "Muscarinic M1, hum, 10 μM"}, "panel of 68 receptors [9]": {"molecular_target": "panel of 68 receptors (Homo sapiens, UniProt P20309)", "conditions": "Muscarinic M3, hum, 10 μM"}, "panel of 68 receptors [10]": {"molecular_target": "panel of 68 receptors (Homo sapiens, UniProt P21554)", "conditions": "Cannabinoid CB1, hum, 10 μM"}, "panel of 68 receptors [11]": {"molecular_target": "panel of 68 receptors (Homo sapiens, UniProt P21728)", "conditions": "Dopamine D1, hum, 10 μM"}, "panel of 68 receptors [12]": {"molecular_target": "panel of 68 receptors (Homo sapiens, UniProt P25101)", "conditions": "Endothelin ETA, hum, 10 μM"}, "panel of 68 receptors [13]": {"molecular_target": "panel of 68 receptors (Homo sapiens, UniProt P25103)", "conditions": "Tachykinin NK1, hum, 10 μM"}, "panel of 68 receptors [14]": {"molecular_target": "panel of 68 receptors (Homo sapiens, UniProt P25105)", "conditions": "Platelet Activating Factor (PAF), hum, 10 μM"}, "panel of 68 receptors [15]": {"molecular_target": "panel of 68 receptors (Homo sapiens, UniProt P29274)", "sequence (P29274 whole entry)": "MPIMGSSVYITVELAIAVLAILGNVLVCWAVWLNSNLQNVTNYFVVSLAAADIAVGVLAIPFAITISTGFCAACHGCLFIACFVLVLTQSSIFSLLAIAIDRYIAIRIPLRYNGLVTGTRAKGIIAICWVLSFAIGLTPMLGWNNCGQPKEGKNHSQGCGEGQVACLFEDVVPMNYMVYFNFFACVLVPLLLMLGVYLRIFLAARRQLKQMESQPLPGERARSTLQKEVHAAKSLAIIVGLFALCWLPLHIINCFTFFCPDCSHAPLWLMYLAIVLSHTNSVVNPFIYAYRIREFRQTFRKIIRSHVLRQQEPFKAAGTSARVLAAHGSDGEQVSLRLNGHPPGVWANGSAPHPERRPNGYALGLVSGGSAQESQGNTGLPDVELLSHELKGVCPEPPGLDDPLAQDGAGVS", "conditions": "Adenosine A2A, hum, 10 μM"}, "panel of 68 receptors [16]": {"molecular_target": "panel of 68 receptors (Homo sapiens, UniProt P30411)", "conditions": "Bradykinin B2, hum, 10 μM"}, "panel of 68 receptors [17]": {"molecular_target": "panel of 68 receptors (Homo sapiens, UniProt P30542)", "sequence (P30542 whole entry)": "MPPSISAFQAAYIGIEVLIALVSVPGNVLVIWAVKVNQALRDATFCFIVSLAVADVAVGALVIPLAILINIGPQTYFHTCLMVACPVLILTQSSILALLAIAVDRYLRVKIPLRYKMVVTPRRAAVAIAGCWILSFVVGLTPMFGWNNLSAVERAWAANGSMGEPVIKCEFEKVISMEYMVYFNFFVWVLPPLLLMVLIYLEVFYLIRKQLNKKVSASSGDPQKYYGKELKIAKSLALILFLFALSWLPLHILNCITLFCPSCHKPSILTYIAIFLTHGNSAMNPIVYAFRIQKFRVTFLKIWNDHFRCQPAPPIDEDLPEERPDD", "conditions": "Adenosine A1, hum, 10 μM"}, "panel of 68 receptors [18]": {"molecular_target": "panel of 68 receptors (Homo sapiens, UniProt P31645)", "conditions": "Transporter, Serotonin (5-Hydroxytryptamine) (SERT), hum, 10 μM"}, "panel of 68 receptors [19]": {"molecular_target": "panel of 68 receptors (Homo sapiens, UniProt P35367)", "conditions": "Histamine H1, hum, 10 μM"}, "panel of 68 receptors [20]": {"molecular_target": "panel of 68 receptors (Homo sapiens, UniProt P35372)", "sequence (P35372 whole entry)": "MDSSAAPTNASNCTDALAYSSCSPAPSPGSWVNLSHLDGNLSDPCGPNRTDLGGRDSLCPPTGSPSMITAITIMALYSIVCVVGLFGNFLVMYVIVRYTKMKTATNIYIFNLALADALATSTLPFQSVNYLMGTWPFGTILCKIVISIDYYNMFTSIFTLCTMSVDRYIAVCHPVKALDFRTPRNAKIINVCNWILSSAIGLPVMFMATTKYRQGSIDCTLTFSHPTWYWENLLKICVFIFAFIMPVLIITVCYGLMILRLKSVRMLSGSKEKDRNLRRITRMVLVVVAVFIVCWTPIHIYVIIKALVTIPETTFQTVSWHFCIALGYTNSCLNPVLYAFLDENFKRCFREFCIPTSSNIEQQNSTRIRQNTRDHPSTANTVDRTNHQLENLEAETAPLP", "conditions": "Opiate μ(OP3, MOP), hum, 10 μM"}, "panel of 68 receptors [21]": {"molecular_target": "panel of 68 receptors (Homo sapiens, UniProt P35462)", "conditions": "Dopamine D3, hum, 10 μM"}, "panel of 68 receptors [22]": {"molecular_target": "panel of 68 receptors (Homo sapiens, UniProt P41145)", "conditions": "Opiate κ(OP2, KOP), hum, 10 μM"}, "panel of 68 receptors [23]": {"molecular_target": "panel of 68 receptors (Homo sapiens, UniProt P41595)", "conditions": "Serotonin (5-Hydroxytryptamine) 5-HT2B, hum, 10 μM"}, "panel of 68 receptors [24]": {"molecular_target": "panel of 68 receptors (Homo sapiens, UniProt P46663)", "conditions": "Bradykinin B1, hum, 10 μM"}, "panel of 68 receptors [25]": {"molecular_target": "panel of 68 receptors (Homo sapiens, UniProt P48039)", "conditions": "Melatonin MT1, hum, 10 μM"}, "panel of 68 receptors [26]": {"molecular_target": "panel of 68 receptors (Homo sapiens, UniProt P49146)", "conditions": "Neuropeptide Y Y2, hum, 10 μM"}, "panel of 68 receptors [27]": {"molecular_target": "panel of 68 receptors (Homo sapiens, UniProt Q01959)", "conditions": "Transporter, Dopamine (DAT), hum, 10 μM"}, "panel of 68 receptors [28]": {"molecular_target": "panel of 68 receptors (Homo sapiens, UniProt Q12809)", "conditions": "Potassium Channel hERG, hum, 10 μM"}, "panel of 68 receptors [29]": {"molecular_target": "panel of 68 receptors (Homo sapiens, UniProt Q99720)", "conditions": "Sigma σ1, hum, 10 μM"}, "panel of 68 receptors [30]": {"molecular_target": "panel of 68 receptors (Homo sapiens, UniProt Q9UBS5)", "conditions": "GABAB1A, hum, 10 μM"}, "panel of 68 receptors [31]": {"molecular_target": "panel of 68 receptors (Homo sapiens, UniProt Q9Y271)", "conditions": "Leukotriene, Cysteinyl CysLT1, hum, 10 μM"}, "panel of 68 receptors [32]": {"molecular_target": "panel of 68 receptors (Mus musculus, UniProt P13504)", "conditions": "Interleukin IL-1, mouse, 10 μM"}, "panel of 68 receptors [33]": {"molecular_target": "panel of 68 receptors (Rattus norvegicus, UniProt P15823)", "sequence (P15823 whole entry)": "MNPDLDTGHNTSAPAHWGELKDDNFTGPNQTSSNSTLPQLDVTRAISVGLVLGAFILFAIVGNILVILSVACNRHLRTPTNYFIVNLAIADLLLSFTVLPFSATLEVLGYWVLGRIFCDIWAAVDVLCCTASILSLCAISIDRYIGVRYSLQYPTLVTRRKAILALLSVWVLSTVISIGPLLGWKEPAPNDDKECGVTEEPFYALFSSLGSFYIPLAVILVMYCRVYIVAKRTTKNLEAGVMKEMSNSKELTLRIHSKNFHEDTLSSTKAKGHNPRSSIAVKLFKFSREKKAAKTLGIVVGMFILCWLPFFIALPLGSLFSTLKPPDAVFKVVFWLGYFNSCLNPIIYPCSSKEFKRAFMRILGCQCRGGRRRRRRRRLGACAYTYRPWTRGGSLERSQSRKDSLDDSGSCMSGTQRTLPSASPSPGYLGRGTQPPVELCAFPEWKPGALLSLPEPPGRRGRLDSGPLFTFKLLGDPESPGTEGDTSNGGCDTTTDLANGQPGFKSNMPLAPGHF", "conditions": "Adrenergic α1B, rat, 10 μM"}, "panel of 68 receptors [34]": {"molecular_target": "panel of 68 receptors (Rattus norvegicus, UniProt Q02294)", "sequence (Q02294 whole entry)": "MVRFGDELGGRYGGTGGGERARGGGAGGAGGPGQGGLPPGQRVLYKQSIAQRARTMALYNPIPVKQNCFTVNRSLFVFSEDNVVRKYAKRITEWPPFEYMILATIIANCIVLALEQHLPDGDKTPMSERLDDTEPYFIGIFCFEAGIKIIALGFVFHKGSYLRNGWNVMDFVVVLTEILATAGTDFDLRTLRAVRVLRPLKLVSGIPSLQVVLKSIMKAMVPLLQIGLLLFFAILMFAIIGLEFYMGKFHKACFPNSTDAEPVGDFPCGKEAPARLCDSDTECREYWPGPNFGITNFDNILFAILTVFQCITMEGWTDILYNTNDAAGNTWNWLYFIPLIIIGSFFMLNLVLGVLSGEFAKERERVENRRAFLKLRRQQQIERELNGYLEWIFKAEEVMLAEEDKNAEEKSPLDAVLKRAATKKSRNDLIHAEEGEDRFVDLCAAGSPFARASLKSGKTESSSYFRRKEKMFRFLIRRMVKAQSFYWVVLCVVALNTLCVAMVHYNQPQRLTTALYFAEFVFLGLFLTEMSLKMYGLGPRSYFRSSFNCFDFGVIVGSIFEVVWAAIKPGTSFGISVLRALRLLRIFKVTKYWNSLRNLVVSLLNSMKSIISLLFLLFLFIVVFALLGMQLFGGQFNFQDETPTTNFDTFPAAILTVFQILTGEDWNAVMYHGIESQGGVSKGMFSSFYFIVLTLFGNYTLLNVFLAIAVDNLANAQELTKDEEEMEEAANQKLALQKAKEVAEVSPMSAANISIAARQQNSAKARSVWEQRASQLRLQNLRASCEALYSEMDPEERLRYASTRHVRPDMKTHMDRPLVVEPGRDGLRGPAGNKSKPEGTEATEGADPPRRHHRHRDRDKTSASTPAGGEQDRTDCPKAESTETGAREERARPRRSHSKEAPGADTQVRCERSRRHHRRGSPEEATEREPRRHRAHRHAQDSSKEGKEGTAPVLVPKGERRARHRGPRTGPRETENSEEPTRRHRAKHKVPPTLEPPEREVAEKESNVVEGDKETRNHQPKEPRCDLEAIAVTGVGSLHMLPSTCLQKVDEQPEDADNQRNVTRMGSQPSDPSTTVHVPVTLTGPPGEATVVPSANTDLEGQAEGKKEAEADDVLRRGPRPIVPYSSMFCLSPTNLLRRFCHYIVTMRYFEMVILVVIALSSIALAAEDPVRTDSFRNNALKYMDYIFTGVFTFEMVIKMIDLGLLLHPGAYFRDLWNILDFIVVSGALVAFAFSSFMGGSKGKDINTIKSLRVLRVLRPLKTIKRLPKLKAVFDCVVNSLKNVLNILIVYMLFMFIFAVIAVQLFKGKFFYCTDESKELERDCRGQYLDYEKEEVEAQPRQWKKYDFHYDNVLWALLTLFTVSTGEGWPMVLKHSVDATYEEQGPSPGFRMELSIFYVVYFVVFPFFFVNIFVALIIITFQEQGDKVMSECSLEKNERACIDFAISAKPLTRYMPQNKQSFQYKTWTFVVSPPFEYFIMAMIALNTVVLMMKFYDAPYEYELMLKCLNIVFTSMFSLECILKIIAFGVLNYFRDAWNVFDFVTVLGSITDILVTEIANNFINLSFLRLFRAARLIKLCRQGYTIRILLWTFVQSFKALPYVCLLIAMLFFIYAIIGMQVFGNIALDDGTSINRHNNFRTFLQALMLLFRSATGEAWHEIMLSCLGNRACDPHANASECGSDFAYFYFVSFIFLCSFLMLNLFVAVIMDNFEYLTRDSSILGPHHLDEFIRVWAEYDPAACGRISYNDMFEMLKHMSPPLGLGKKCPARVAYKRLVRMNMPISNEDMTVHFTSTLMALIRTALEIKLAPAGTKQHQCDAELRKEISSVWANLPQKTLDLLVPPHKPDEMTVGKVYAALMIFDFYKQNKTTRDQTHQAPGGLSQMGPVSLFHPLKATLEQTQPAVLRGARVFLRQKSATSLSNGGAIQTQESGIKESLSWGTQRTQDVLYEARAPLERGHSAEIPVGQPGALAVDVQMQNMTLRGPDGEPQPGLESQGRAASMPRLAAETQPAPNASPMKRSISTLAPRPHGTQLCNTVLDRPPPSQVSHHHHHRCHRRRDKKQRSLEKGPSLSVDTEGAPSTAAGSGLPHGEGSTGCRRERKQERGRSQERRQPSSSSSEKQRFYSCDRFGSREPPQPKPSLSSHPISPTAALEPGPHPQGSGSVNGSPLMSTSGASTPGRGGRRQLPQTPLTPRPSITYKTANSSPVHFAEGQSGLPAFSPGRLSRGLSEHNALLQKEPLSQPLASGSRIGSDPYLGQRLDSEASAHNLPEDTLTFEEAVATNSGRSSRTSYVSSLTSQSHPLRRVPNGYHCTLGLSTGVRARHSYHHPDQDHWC", "conditions": "Calcium Channel N-Type, rat, 10 μM"}}, "data": [{"smiles": "CCOc1ccc(-c2cc(NC(=O)c3c(F)cccc3F)c(C(=O)O)s2)cc1", "note": "[KUC107784N-02]", "values": [{"measurement": "% Inh.", "setting": "panel of 68 receptors [1]", "result": 8, "unit": "%"}, {"measurement": "% Inh.", "setting": "panel of 68 receptors [2]", "result": 9, "unit": "%"}, {"measurement": "% Inh.", "setting": "panel of 68 receptors [3]", "result": "−8", "unit": "%"}, {"measurement": "% Inh.", "setting": "panel of 68 receptors [4]", "result": 2, "unit": "%"}, {"measurement": "% Inh.", "setting": "panel of 68 receptors [5]", "result": 4, "unit": "%"}, {"measurement": "% Inh.", "setting": "panel of 68 receptors [6]", "result": "−1", "unit": "%"}, {"measurement": "% Inh.", "setting": "panel of 68 receptors [7]", "result": 29, "unit": "%"}, {"measurement": "% Inh.", "setting": "panel of 68 receptors [8]", "result": 1, "unit": "%"}, {"measurement": "% Inh.", "setting": "panel of 68 receptors [9]", "result": 14, "unit": "%"}, {"measurement": "% Inh.", "setting": "panel of 68 receptors [10]", "result": 13, "unit": "%"}, {"measurement": "% Inh.", "setting": "panel of 68 receptors [11]", "result": 5, "unit": "%"}, {"measurement": "% Inh.", "setting": "panel of 68 receptors [12]", "result": 8, "unit": "%"}, {"measurement": "% Inh.", "setting": "panel of 68 receptors [13]", "result": 7, "unit": "%"}, {"measurement": "% Inh.", "setting": "panel of 68 receptors [14]", "result": 4, "unit": "%"}, {"measurement": "% Inh.", "setting": "panel of 68 receptors [15]", "result": 19, "unit": "%"}, {"measurement": "% Inh.", "setting": "panel of 68 receptors [16]", "result": 6, "unit": "%"}, {"measurement": "% Inh.", "setting": "panel of 68 receptors [17]", "result": 28, "unit": "%"}, {"measurement": "% Inh.", "setting": "panel of 68 receptors [18]", "result": 8, "unit": "%"}, {"measurement": "% Inh.", "setting": "panel of 68 receptors [19]", "result": 2, "unit": "%"}, {"measurement": "% Inh.", "setting": "panel of 68 receptors [20]", "result": 3, "unit": "%"}, {"measurement": "% Inh.", "setting": "panel of 68 receptors [21]", "result": 4, "unit": "%"}, {"measurement": "% Inh.", "setting": "panel of 68 receptors [22]", "result": 14, "unit": "%"}, {"measurement": "% Inh.", "setting": "panel of 68 receptors [23]", "result": 11, "unit": "%"}, {"measurement": "% Inh.", "setting": "panel of 68 receptors [24]", "result": 3, "unit": "%"}, {"measurement": "% Inh.", "setting": "panel of 68 receptors [25]", "result": 3, "unit": "%"}, {"measurement": "% Inh.", "setting": "panel of 68 receptors [26]", "result": "−3", "unit": "%"}, {"measurement": "% Inh.", "setting": "panel of 68 receptors [27]", "result": 8, "unit": "%"}, {"measurement": "% Inh.", "setting": "panel of 68 receptors [28]", "result": "−11", "unit": "%"}, {"measurement": "% Inh.", "setting": "panel of 68 receptors [29]", "result": 5, "unit": "%"}, {"measurement": "% Inh.", "setting": "panel of 68 receptors [30]", "result": 5, "unit": "%"}, {"measurement": "% Inh.", "setting": "panel of 68 receptors [31]", "result": 0, "unit": "%"}, {"measurement": "% Inh.", "setting": "panel of 68 receptors [32]", "result": 3, "unit": "%"}, {"measurement": "% Inh.", "setting": "panel of 68 receptors [33]", "result": 0, "unit": "%"}, {"measurement": "% Inh.", "setting": "panel of 68 receptors [34]", "result": "−16", "unit": "%"}]}]}
